Source: patent publication EP0995441A2, “Combination of compounds for treating erectile dysfunctions” (priority 1998, dated 2000)
Values joined by “and” are separate entries in the source; they are usually repeats but may differ in a detail not shown here. Equal values may be shown once.

Legend:
[1] = system: Patienten mit Sildenafilresistenz; test: Clinical study: erection response after oral drug combination in patients not responding to sildenafil alone; format: in vivo
Protocol: Überraschenderweise erwies sich in klinischen Studien, daß Patienten mit erektiler Impotenz (ED) nach Therapieversagen unter der Behandlung mit Sildenafil allein (ED-SN negativ nach Sildenafil-Therapie in einer Menge von 100 mg Sildenafil) mit der erfindungsgemäßen Medikamentenkombination erfolgreich therapierbar waren.
Tabelle 1 zeigt die Wirkung einer Medikamentenkombination, bestehend aus Sildenafil und Midodrin der chemischen Strukturformel: [drawing 3] wobei die Sildenafil-Mengen von 10 bis 100 mg und die Midodrin-Mengen von 5 bis 25 mg variiert wurden.
Bei 10 Patienten mit ED-SN im Alter zwischen 45 bis 65 Jahren ohne Nitropräparate und koronare Herzkrankheiten lag beispielsweise die Ansprechrate der Medikamentenkombination, bestehend aus 50 mg Sildenafil und 25 mg Midodrin bei 7 von 10 Patienten, wenn die Medikamentenkombination in Form von Zwei-Kompartment-Dragees gegeben wurde.
Bei Gabe der Medikamentenkombination in einer üblichen Retard-Form gelang es, die Ansprechrate auf 8 von 10 Patienten zu erhöhen. Tabelle 1

[2] = system: Sphincter internus und Sphincter externus; test: Endoscopic observation and fibre-optic pressure measurement in the prostatic urethra after injection into the corpora cavernosa; format: in vivo, Patienten mit Priapismus; conditions: Vergleichsgruppe with clinically sufficient erection after 100 mg Sildenafil
Excerpt: Diese pharmakologischen Veränderungen sind ein indirekter Hinweis auf die alterierte Gefäßabflußsituation im Funktionsbereich der angrenzenden Organe an die Corpora cavernosa.

[3] = Sildenafil Monodosis 100 mg, control of the Retardform group

Question: Which “Kontrolle, 1. REAKTION (INITIALPHASE): patients reacting out of 10” value (“Kontrolle, 1. REAKTION (INITIALPHASE)” for short) ([1]; Sildenafil Monodosis 10 mg) does the source give for `CCCc1nn(C)c2c(=O)[nH]c(-c3cc(S(=O)(=O)N4CCN(C)CC4)ccc3OCC)nc12` [Sildenafil] here?
Answer: The value was 0/10.

Question: And the “Kontrolle, 50% REAKTION: patients reacting out of 10” value (“Kontrolle, 50% REAKTION … of 10” below) ([1]; Sildenafil Monodosis 10 mg)?
Answer: The value was 0/10.

Question: And the “Kontrolle, MAXIMALE EREKTION: patients reacting out of 10” value (“Kontrolle, MAXIMALE EREKTION … of 10” for short) ([1]; Sildenafil Monodosis 10 mg)?
Answer: Its value is 0/10.

Question: What about the “Kontrolle, 1. REAKTION (INITIALPHASE)” value ([1]; Sildenafil Monodosis 50 mg) of the same compound?
Answer: The value was 0/10 and 1/10.

Question: And the “Kontrolle, 50% REAKTION … of 10” value ([1]; Sildenafil Monodosis 50 mg)?
Answer: Its value is 0/10.

Question: What about the “Kontrolle, MAXIMALE EREKTION … of 10” value ([1]; Sildenafil Monodosis 50 mg) of the same compound?
Answer: Its value is 0/10.

Question: And the “Kontrolle, 1. REAKTION (INITIALPHASE)” value ([1]; Sildenafil Monodosis 100 mg)?
Answer: The value was 1/10 and 0/10.

Question: What about the “Kontrolle, 50% REAKTION … of 10” value ([1]; Sildenafil Monodosis 100 mg) of the same compound?
Answer: The value was 1/10 and 0/10.

Question: What about the “Kontrolle, MAXIMALE EREKTION … of 10” value ([1]; Sildenafil Monodosis 100 mg) of the same compound?
Answer: The value was 0/10.

Question: And the “Kontrolle, 50% REAKTION: time” value [1, 3]?
Answer: The value was 105 min.

Question: What about the “Kontrolle, MAXIMALE EREKTION: time” value [1, 3] of the same compound?
Answer: The value was 120 min.

Question: What about the “Druckwerte im Bereich des Sphincter internus sowie des Sphincter externus” value [2] of the same compound?
Answer: The value was “keine vergleichbaren hohen Druckwerte”.
